According to patent US10314820B2, “Imidazole-based heterocyclic compounds” (priority 2014, dated 2019):
Converted amounts (≈) assume the structure as drawn.

Assays:
[1] = system: Human keratinocytes (HaCaT cells); assay: Human cytotoxicity assay in vitro (CellTiter-Glo), keratinocytes; assay type: cell-based; conditions: keratinocyte cytotoxicity score; 24 h exposure
[2] = system: Escherichia coli TolC mutant strain ΔtolC; assay type: cell-based; conditions: Table BB; MIC score
[3] = system: Human hepatocytes (HepaRG cells); assay: Human cytotoxicity assay in vitro (CellTiter-Glo), hepatocytes; assay type: cell-based; conditions: hepatocyte cytotoxicity score; 24 h exposure
[4] = system: linezolid-resistant Staphylococcus aureus (from MRSA, COL); assay: microbe, parasite or virus in culture; assay type: cell-based; conditions: for antibacterial activity MRSA strains with additional resistance to L: Table BB, MIC score, linezolid-resistant MRSA
[5] = system: Enterococcus faecium (AGR15, ATCCBAA-2127); assay: Broth microdilution MIC assay, Enterococcus faecium; assay type: cell-based; conditions: Table BB; MIC score
[6] = system: vancomycin-resistant Staphylococcus aureus (from MRSA, COL); assay: microbe, parasite or virus in culture; assay type: cell-based; conditions: for antibacterial activity MRSA strains with additional resistance to V: Table BB, MIC score, vancomycin-resistant MRSA
[7] = system: moenomycin-resistant Staphylococcus aureus (from MRSA, COL); conditions: Table BB, MIC score
[8] = system: Staphylococcus aureus MRSA (COL); assay type: cell-based; conditions: Table AA; MIC score
[9] = system: Staphylococcus aureus MSSA (Newman); assay: Broth microdilution MIC assay, MSSA; assay type: cell-based; conditions: Table AA; MIC score
[10] = system: Streptococcus pneumoniae (Chester, ATCC49619); assay: Broth microdilution MIC assay, Streptococcus pneumoniae; assay type: cell-based; conditions: Table AA; MIC score
[11] = system: MRSA (COL) resistant to triclosan; assay: microbe, parasite or virus in culture; conditions: Staphylococcus aureus, read-out: MIC values of resistant strains
[12] = system: platensimycin-resistant Staphylococcus aureus (from MRSA, COL); assay: microbe, parasite or virus in culture; assay type: cell-based; conditions: read-out: MIC for the resistant strain
[13] = Staphylococcus aureus, MRSA, read-out: MIC for the resistant strain

Row | Structure (SMILES) | cytotoxicity cell line K [1] | cytotoxicity cell line H [3] | antibacterial activity MRSA strains with additional resistance to L [4] | antibacterial activity EFm [5] | antibacterial activity MRSA strains with additional resistance to V [6] | antibacterial activity MRSA strains with additional resistance to M [7] | also measured
1 | Cc1ccccc1-c1cnc(-c2ccc(-c3ccccc3C(F)(F)F)o2)[nH]1 [Compound 69] | 1 (compounds causing less than 50% inhibition of cell viability at 50 μM) | 2 |  |  |  |  | antibacterial activity EC Δ [2]: 1 (the compound has an MIC100 of 20-50 μg/ml or an MIC50 of <10 μg/ml)
2 | Cc1[nH]c(-c2ccc(-c3ccccc3F)s2)nc1-c1ccccc1 [Compound 15] | 1 (compounds causing less than 50% inhibition of cell viability at 50 μM) | 1 (compounds not causing a loss of viability at concentrations between 25 and 50 μM) |  |  |  |  | antibacterial activity EC Δ [2]: 1 (the compound has an MIC100 of 20-50 μg/ml or an MIC50 of <10 μg/ml)
3 | Cc1[nH]c(-c2ccc(-c3ccc(Cl)c(C(F)(F)F)c3)o2)nc1-c1ccc(F)cc1 [Compound 42] | 3 (compounds causing more than 50% inhibition of cell viability at 10 μM) | 1 (compounds not causing a loss of viability at concentrations between 25 and 50 μM) | 4 (the compound has an MIC of 1 μg/ml to 3 μg/ml for preventing bacterial growth 100% (MIC100)) | 1 (the compound has an MIC100 of 20-50 μg/ml or an MIC50 of <10 μg/ml) | 4 (the compound has an MIC of 1 μg/ml to 3 μg/ml for preventing bacterial growth 100% (MIC100)) | 4 (the compound has an MIC of 1 μg/ml to 3 μg/ml for preventing bacterial growth 100% (MIC100)) | 
4 | FC(F)(F)Oc1ccccc1-c1ccc(-c2nc(Cl)c(-c3ccccc3)[nH]2)o1 [Compound 64] | 3 (compounds causing more than 50% inhibition of cell viability at 10 μM) | 3 |  |  | 4 (the compound has an MIC of 1 μg/ml to 3 μg/ml for preventing bacterial growth 100% (MIC100)) | 4 (the compound has an MIC of 1 μg/ml to 3 μg/ml for preventing bacterial growth 100% (MIC100)) | 
5 | CC(=O)NC[C@H]1CN(c2ccc(N3CCOCC3)c(F)c2)C(=O)O1 [linezolid, reference compound] |  |  |  |  |  |  | MIC [4, 13]: 7.5 µg/mL (≈ 22.2 µM)
6 | Cc1[nH]c(-c2ccc(-c3ccc(C(F)(F)F)cc3)o2)nc1-c1ccc(Cl)cc1 [Compound 47] | 2 (compounds causing>50% inhibition of cell viability at 25 μM) | 1 (compounds not causing a loss of viability at concentrations between 25 and 50 μM) |  | 1 (the compound has an MIC100 of 20-50 μg/ml or an MIC50 of <10 μg/ml) |  |  | 
7 | Cc1nc(-c2ccc(-c3ccc(Cl)c(OC(F)(F)F)c3)o2)[nH]c1-c1ccc(Cl)cc1 [Compound 44] |  | 2 |  | 1 (the compound has an MIC100 of 20-50 μg/ml or an MIC50 of <10 μg/ml) |  |  | 
8 | CN(C)Cc1[nH]c(-c2ccc(-c3ccccc3C(F)(F)F)o2)nc1-c1ccccc1 [Compound 70] | 2 (compounds causing>50% inhibition of cell viability at 25 μM) | 3 | 1 (the compound has an MIC100 of 20-50 μg/ml or an MIC50 of <10 μg/ml) | 2 (the compound has an MIC100 of 11-20 μg/ml) | 1 (the compound has an MIC100 of 20-50 μg/ml or an MIC50 of <10 μg/ml) | 1 (the compound has an MIC100 of 20-50 μg/ml or an MIC50 of <10 μg/ml) | Antibacterial activity Staphylococcus aureus (MRSA) [8]: 1 (the compound has an MIC100 of 20-50 μg/ml or an MIC50 of <10 μg/ml); Antibacterial activity Staphylococcus aureus (MSSA) [9]: 1 (the compound has an MIC100 of 20-50 μg/ml or an MIC50 of <10 μg/ml); antibacterial activity EC Δ [2]: 3 (the compound has an MIC100 of 3-10 μg/ml); Antibacterial activity Streptococcus pneumoniae [10]: 3 (the compound has an MIC100 of 2-5 μg/ml)
9 | Cc1[nH]c(-c2ccc(-c3ccccc3OC(F)(F)F)o2)nc1-c1ccc(Cl)cc1 [Compound 24] | 2 (compounds causing>50% inhibition of cell viability at 25 μM) | 2 | 3 (the compound has an MIC100 of 3-10 μg/ml) |  | 4 (the compound has an MIC of 1 μg/ml to 3 μg/ml for preventing bacterial growth 100% (MIC100)) | 3 (the compound has an MIC100 of 3-10 μg/ml) | 
10 | Cc1[nH]c(-c2ccc(-c3ccc(C(F)(F)F)c(Cl)c3)o2)nc1-c1ccc(F)cc1 [Compound 49] | 2 (compounds causing>50% inhibition of cell viability at 25 μM) | 3 | 2 (the compound has an MIC100 of 11-20 μg/ml) | 1 (the compound has an MIC100 of 20-50 μg/ml or an MIC50 of <10 μg/ml) | 3 (the compound has an MIC100 of 3-10 μg/ml) | 3 (the compound has an MIC100 of 3-10 μg/ml) | 
11 | CN[C@H](CC(C)C)C(=O)N[C@H]1C(=O)N[C@@H](CC(N)=O)C(=O)N[C@H]2C(=O)N[C@H]3C(=O)N[C@H](C(=O)N[C@H](C(=O)O)c4cc(O)cc(O)c4-c4cc3ccc4O)[C@H](O)c3ccc(c(Cl)c3)Oc3cc2cc(c3O[C@@H]2O[C@H](CO)[C@@H](O)[C@H](O)[C@H]2O[C@H]2C[C@](C)(N)[C@H](O)[C@H](C)O2)Oc2ccc(cc2Cl)[C@H]1O [vancomycin, Vancomycin, reference compound] |  |  |  |  |  |  | MIC [6, 13]: 20 µg/mL (≈ 13.8 µM)
12 | Cc1[nH]c(-c2ccc(-c3ccc(OC(F)(F)F)c(Cl)c3)o2)nc1-c1ccc(Cl)cc1 [Compound 50] | 1 (compounds causing less than 50% inhibition of cell viability at 50 μM) | 1 (compounds not causing a loss of viability at concentrations between 25 and 50 μM) |  |  |  |  | Antibacterial activity Staphylococcus aureus (MRSA) [8]: 2 (the compound has an MIC100 of 11-20 μg/ml); Antibacterial activity Staphylococcus aureus (MSSA) [9]: 3 (the compound has an MIC100 of 3-10 μg/ml); Antibacterial activity Streptococcus pneumoniae [10]: 3 (the compound has an MIC100 of 2-5 μg/ml)
13 | Cc1ccccc1-c1c[nH]c(-c2ccc(-c3ccccc3OC(F)(F)F)o2)n1 [Compound 66] | 1 (compounds causing less than 50% inhibition of cell viability at 50 μM) | 3 | 4 (the compound has an MIC of 1 μg/ml to 3 μg/ml for preventing bacterial growth 100% (MIC100)) |  | 3 (the compound has an MIC100 of 3-10 μg/ml) | 3 (the compound has an MIC100 of 3-10 μg/ml) | 
14 | Oc1cc(Cl)ccc1Oc1ccc(Cl)cc1Cl [triclosan] |  |  |  |  |  |  | MIC [11]: > 20 µg/mL
15 | Fc1ccc(-c2ccc(-c3nc4ccccc4[nH]3)o2)c(F)c1 [Compound 122] |  |  |  |  |  |  | Antibacterial activity Staphylococcus aureus (MRSA) [8]: inactive; Antibacterial activity Streptococcus pneumoniae [10]: inactive
16 | Fc1ccc(-c2ccc(-c3nc4ccccc4[nH]3)o2)cc1 [Compound 121] |  |  |  |  |  |  | Antibacterial activity Staphylococcus aureus (MRSA) [8]: inactive; Antibacterial activity Streptococcus pneumoniae [10]: inactive
17 | Cc1nc(-c2ccc(-c3ccccc3OC(F)(F)F)o2)[nH]c1-c1ccccc1Cl [Compound 19] | 0 (compounds not causing loss of cell viability at concentrations of 50 μM or higher) | 3 | 3 (the compound has an MIC100 of 3-10 μg/ml) |  | 1 (the compound has an MIC100 of 20-50 μg/ml or an MIC50 of <10 μg/ml) |  | 
18 | CC12C[C@@]34C=CC(=O)[C@@](C)(CCC(=O)Nc5c(O)ccc(C(=O)O)c5O)C3[C@H](CC1C4)O2 (stereo partly drawn) [platensimycin] |  |  |  |  |  |  | MIC [12]: > 10 µg/mL
19 | Cc1[nH]c(-c2cc(C)n(-c3ccc(Cl)cc3)c2C)nc1-c1ccccc1 [Compound 8] | 1 (compounds causing less than 50% inhibition of cell viability at 50 μM) | 2 |  |  |  |  | 
20 | Cc1[nH]c(-c2ccc(-c3ccccc3OC(F)(F)F)o2)nc1-c1ccc(F)cc1 [Compound 23, 4-(4-Fluoro-phenyl)-5-methyl-2-[5-(2-trifluoromethoxy-phenyl)-furan-2-yl]-1H-imidazole] | 2 (compounds causing>50% inhibition of cell viability at 25 μM) | 3 |  | 1 (the compound has an MIC100 of 20-50 μg/ml or an MIC50 of <10 μg/ml) |  |  | 
